One series deals with macrophage CD36 (Homo sapiens, UniProt P16671). Conditions: cited from earlier work.
The test system of a further series is MCF7 breast cancer cells. Briefly: Antiproliferative and proapoptotic effects in MCF7 cells. It counts as cell-based, human. The following applies: at 10 μM or lower. From the text:
The chemopreventive actions exerted by green tea are thought to be due to its major polyphenol, (−)-epigallocatechin-3-gallate (EGCG). However, the low level of stability and bioavailability in the body makes administering EGCG at chemopreventive doses unrealistic. EGCG encapsulated chitosan-coated nanoliposomes (CSLIPO-EGCG) were synthesized, and their antiproliferative and proapoptotic effects in MCF7 breast cancer cells were observed.

The nature of series [1]: Stability of NLCE, CSNLCE and native EGCG in PBS at different pH and temperatures (HPLC). It counts as physicochemical. On the procedure:
EGCG was detected using a high-performance liquid chromatography (HPLC) system (Waters Corporation, Milford, Mass.) with a UV detector and a ZORBAX SB-C18.5 μm, 150*4.6 mm (Agilent,). The mobile phase was composed of 86% water, 12% acetonitrile, 2% ethyl acetate and 0.043% sulfuric acid, and the flow rate was 1 ml/minute. EGCG was detected at 254 nm.
To determine the stability of NLCE, CSNLCE and native EGCG in a pH range 1-7.4, Hydrochloric acid was added into 200 mM phosphate buffered saline to obtain four different pH solutions (pH=1, 3, 5, 7.4). All samples were then dissolved in these solutions to obtain a final EGCG concentration of 100 μM. The solutions were stored in tightly closed vials and incubated in a 37° C. water bath. EGCG concentrations were measured at 0 h, 0.5 h, 1 h, 1.5 h, 2 h, 2.5 hand 3 h.
[…] To simulate the cell growth, stability was evaluated in the cell culture medium RPMI1640 at 37° C. with or without cells, and with or without superoxide dismutases (SOD, 5 U/ml).

Series [2] can be described thus: Stability of EGCG in cell culture medium RPMI1640 at 37° C. It counts as physicochemical. Conditions: after 1 h incubation. As for the experimental part: To determine the stability in different temperatures, NLCE, CSNLCE and native EGCG containing 100 μM of EGCG were dissolved in 1×PBS solution (pH 7.4) and incubated at 4° C., 22° C. and 37° C. for 14 d, 19 h and 3 h, respectively. To simulate the cell growth, stability was evaluated in the cell culture medium RPMI1640 at 37° C. with or without cells, and with or without superoxide dismutases (SOD, 5 U/ml).

The test system of series [3] is THP-1 derived macrophages. Briefly: EGCG content in THP-1 derived macrophages. It counts as cell-based, human. Conditions: 100 μM. On the procedure: Human monocytic THP-1 cell line was purchased from the American Type Tissue Culture Collection (ATCC, Rockville, Md.) and grew in a complete medium according to ATCC instructions. The complete medium consisted of RPMI medium supplemented with 10% fetal bovine serum and 0.05 mM of 2-mercaptoethanol. The cells were incubated in a 5% CO2 atmosphere at 37° C. THP-1 cells were differentiated into macrophages by incubating them with the complete medium containing 50 ng/ml PMA for 72 h.
Macrophages derived from THP-1 cells were treated with 100 μM of NLCE, CSNLCE and native EGCG in the complete medium with or without SOD (5 U/ml). After 2 or 4 h incubation at 4° C. or 37° C., cells were washed three times with ice-cold 1×PBS. The attached cells were scraped by 200 μl of 2% ascorbic acid (pH 3) and each well was washed with 200 μl of methanol, which was then combined with 2% ascorbic acid as a mixture. The volume of mixture was measured and internal standard epicatechin was added into the mixture. After one cycle of freezing and thawing, mixtures were sonicated for 2 min in an ice-cold bath using a sonicator (Branson, Inc.). The mixture was centrifuged at 10,000×g for 20 min at 4° C. The clear supernatant solution was collected and injected into the HPLC system. Precipitates were washed with 0.5 ml of deionized water to get rid of acid and dried in the chemical hood overnight. The dried cells were digested by 0.5 N NaOH. Total cellular protein levels were determined by using a bicinchoninic acid (BCA) kit (Pierce, Cramlington). Total cellular uptake was expressed as μg of EGCG per mg of protein.

The conditions of series [4]: cited from earlier work.
Series [5] has as its system cuff-induced evolving atherosclerotic lesion. Conditions: apolipoprotein E null mice, daily intraperitoneal 10 mg/kg body weight, after 21 days treatment; cited from earlier work.
Series [6] relates to macrophages and macrophage-derived foam cells. The following applies: in vitro; cited from earlier work.
For series [7] the following is noted: in vitro; cited from earlier work.

This is an account of results in patent US20140287024A1, “NANOPARTICLE-BASED DELIVERY SYSTEM WITH OXIDIZED PHOSPHOLIPIDS AS TARGETING LIGANDS FOR THE PREVENTION, DIAGNOSIS AND TREATMENT OF ATHEROSCLEROSIS” (priority 2013, published 2014).

Chain of macrophage CD36 (P16671 whole entry): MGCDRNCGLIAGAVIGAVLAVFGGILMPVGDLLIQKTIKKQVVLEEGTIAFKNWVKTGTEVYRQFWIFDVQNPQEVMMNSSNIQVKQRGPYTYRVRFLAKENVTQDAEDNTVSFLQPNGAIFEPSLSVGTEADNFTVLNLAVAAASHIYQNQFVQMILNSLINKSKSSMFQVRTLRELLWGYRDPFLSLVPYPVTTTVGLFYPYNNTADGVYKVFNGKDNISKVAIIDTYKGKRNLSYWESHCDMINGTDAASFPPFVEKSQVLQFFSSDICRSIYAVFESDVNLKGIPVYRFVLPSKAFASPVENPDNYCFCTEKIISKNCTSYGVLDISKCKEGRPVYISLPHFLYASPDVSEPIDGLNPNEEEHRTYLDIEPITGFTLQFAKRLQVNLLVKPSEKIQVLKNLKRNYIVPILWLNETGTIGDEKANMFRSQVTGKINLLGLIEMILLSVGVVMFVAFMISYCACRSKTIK

Regarding “1-Palmitoyl-2-(11-carboxy-9-oxoundec-10-enoyl)-sn-glycero-3-phosphatidylcholine [KDdiA-PC]”, on macrophage CD36, the “CD36 binding affinity conferred, relative potency” value is reported as “more potently than any hydroperoxy phospholipid species” and the “binding affinity to macrophage CD36” value is on record as “high binding affinity”.
Turning to “5-keto-6-octendioic acid esters of 2-lyso-PC [KOdiA-PC]”, at macrophage CD36, the “binding affinity to macrophage CD36” value was “high binding affinity”.
Take `O=C(O[C@@H]1Cc2c(O)cc(O)cc2O[C@@H]1c1cc(O)c(O)c(O)c1)c1cc(O)c(O)c(O)c1` [EGCG, (−)-epigallocatechin-3-gallate]: the “antiproliferative and proapoptotic effectiveness” value with MCF7 breast cancer cells is given as “doesn't have any beneficial effects”. Moreover, the EGCG left entry in series [1] (100 μM, 1×PBS pH 7.4, 37° C., after 3 h) is reported as “completely degraded”; in series [1] (after incubating for 8 h at 23° C.), 1.52%; in series [2], 3.7%. Moreover, the “stability in acidic pH” value in series [1] (100 μM, pH 1.0 to 5.0, 37° C., 3 h) is on record as “stable”. Further, in series [1] (100 μM, pH 7.4, 37° C., after 3 h), the “stability in neutral pH” value was “not stable and could not be detected”. This molecule returned an EGCG degraded in series [1] (4° C., after 19 hours, same initial concentration) of 91%. The “order of stability of EGCG at the same pH” value in series [1] (in all conditions) is “CSNLCE>NLCE>native EGCG”. The “EGCG content in macrophages” value in series [3] (complete medium containing 5 U/ml of SOD, 2 h incubation at 37° C.) was found to be 0.098 μg/mg protein; in series [3] (in the presence of SOD, after 4 h) it was 0.109 μg/mg protein. Also, the “EGCG content in THP-1 derived macrophages” value in series [3] (complete medium without SOD, 2 h incubation at 37° C.) was found to be 0.031 μg/mg protein. Also, the “peak plasma EGCG concentration” value in series [4] (after drinking 2 cups of green tea) is 0.15 µM. Besides, the absolute oral bioavailability result in [4] (after drinking tea containing catechins at 10 mg/kg body weight, humans and research animals) is listed as “about 0.1%”. The “reduction of atherosclerotic lesion size” value in series [5] is given as 55%. The “apoptosis of macrophages and macrophage-derived foam cells” value in [6] is listed as “induce apoptosis”. Further, the “expression and production of inflammatory factors” value in series [6] is listed as “inhibit”. The “stability in water and physiological fluid” value in series [7] is “unstable”.
